In patent US9914874B2, “Composite nanoparticles including a malonic acid derivative” (3M INNOVATIVE PROPERTIES COMPANY, priority 2013, dated 2018):

Test: Solubility of the malonic acid derivative in toluene
Assay type: physicochemical
Conditions: based on total weight of the solution

- solubility in toluene: greater than 1 weight percent
SMILES: CC(CC=C(C(=O)O)C(=O)O)CC(C)(C)C (stereo not shown) [Example 3, 2-(3,5,5-Trimethylhexylidene)propanedioic Acid]
